Active and inactive are the calls of the source.
Tests used:
[1] = target: cAMP-dependent protein kinase type II-alpha regulatory subunit (Homo sapiens, UniProt P13861)
[2] = target: T1, ATP-dependent RNA helicase DDX42 (Homo sapiens, UniProt Q86XP3)
T1 sequence (Q86XP3 whole entry): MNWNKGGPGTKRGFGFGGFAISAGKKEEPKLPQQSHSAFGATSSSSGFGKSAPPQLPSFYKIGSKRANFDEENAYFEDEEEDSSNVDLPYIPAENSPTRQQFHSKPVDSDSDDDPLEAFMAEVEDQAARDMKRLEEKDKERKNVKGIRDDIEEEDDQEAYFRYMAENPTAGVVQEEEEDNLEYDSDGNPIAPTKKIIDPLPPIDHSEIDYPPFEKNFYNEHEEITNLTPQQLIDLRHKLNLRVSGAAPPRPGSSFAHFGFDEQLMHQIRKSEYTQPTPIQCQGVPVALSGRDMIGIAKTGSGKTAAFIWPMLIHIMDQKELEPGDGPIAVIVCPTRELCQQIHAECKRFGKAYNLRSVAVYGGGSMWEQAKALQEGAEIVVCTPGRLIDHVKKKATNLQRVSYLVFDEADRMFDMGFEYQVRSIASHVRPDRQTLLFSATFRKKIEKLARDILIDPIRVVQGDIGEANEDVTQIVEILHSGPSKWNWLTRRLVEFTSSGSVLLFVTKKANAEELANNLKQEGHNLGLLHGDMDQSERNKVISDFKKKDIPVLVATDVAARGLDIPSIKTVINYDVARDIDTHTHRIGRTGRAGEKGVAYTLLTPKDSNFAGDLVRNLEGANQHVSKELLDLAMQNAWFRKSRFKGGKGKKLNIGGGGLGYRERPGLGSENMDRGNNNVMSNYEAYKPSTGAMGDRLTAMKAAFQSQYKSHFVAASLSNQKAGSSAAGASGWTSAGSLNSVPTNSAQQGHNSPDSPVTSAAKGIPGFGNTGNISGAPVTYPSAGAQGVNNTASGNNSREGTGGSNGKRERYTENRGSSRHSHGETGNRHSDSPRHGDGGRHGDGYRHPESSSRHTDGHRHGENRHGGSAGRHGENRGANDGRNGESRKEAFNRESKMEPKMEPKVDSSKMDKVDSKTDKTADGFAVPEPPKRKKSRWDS

[3] = target: T2, Cysteine--tRNA ligase, cytoplasmic (Homo sapiens, UniProt P49589)
T2 sequence (P49589 whole entry): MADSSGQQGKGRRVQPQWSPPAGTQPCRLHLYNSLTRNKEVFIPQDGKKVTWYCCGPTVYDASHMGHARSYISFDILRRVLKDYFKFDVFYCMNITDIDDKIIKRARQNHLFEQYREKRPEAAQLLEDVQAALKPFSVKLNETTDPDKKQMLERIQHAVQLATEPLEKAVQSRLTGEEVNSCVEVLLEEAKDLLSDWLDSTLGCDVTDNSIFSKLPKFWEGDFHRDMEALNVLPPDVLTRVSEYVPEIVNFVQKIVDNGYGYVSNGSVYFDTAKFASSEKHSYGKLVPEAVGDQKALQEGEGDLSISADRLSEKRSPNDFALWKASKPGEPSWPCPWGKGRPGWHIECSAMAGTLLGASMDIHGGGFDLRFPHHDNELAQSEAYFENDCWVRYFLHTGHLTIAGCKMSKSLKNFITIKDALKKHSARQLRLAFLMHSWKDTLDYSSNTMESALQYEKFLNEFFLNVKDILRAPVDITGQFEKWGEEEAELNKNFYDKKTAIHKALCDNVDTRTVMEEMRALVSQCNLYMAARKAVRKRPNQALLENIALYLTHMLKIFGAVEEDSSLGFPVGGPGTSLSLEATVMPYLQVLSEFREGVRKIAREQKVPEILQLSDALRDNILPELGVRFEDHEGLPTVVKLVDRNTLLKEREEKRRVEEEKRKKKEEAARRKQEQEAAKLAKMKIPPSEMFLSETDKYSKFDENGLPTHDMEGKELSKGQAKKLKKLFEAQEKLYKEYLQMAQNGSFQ

[4] = target: Inosine-5'-monophosphate dehydrogenase 2 (Homo sapiens, UniProt P12268)
[5] = target: Protein kinase C theta type (Homo sapiens, UniProt Q04759)
Chain of Protein kinase C theta type (Q04759 whole entry): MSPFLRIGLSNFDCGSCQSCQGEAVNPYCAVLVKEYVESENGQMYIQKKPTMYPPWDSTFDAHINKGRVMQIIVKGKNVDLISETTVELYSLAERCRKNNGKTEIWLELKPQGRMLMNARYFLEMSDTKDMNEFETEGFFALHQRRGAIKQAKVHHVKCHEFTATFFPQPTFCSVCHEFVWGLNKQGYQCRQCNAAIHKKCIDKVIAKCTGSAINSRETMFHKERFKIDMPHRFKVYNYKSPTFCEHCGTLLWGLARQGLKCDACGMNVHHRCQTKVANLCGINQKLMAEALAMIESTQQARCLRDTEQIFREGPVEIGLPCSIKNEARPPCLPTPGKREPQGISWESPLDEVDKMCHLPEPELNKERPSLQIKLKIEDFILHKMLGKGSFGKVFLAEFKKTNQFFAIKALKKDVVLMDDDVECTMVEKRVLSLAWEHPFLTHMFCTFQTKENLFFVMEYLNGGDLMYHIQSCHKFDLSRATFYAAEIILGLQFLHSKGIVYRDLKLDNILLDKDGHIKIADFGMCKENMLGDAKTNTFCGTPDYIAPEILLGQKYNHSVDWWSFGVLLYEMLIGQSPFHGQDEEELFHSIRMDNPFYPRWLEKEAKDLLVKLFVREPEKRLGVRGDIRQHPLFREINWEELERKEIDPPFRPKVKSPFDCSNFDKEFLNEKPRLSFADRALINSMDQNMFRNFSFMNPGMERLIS

[6] = target: T3, Serine/threonine-protein kinase NLK (Homo sapiens, UniProt Q9UBE8)
T3 sequence (Q9UBE8 whole entry): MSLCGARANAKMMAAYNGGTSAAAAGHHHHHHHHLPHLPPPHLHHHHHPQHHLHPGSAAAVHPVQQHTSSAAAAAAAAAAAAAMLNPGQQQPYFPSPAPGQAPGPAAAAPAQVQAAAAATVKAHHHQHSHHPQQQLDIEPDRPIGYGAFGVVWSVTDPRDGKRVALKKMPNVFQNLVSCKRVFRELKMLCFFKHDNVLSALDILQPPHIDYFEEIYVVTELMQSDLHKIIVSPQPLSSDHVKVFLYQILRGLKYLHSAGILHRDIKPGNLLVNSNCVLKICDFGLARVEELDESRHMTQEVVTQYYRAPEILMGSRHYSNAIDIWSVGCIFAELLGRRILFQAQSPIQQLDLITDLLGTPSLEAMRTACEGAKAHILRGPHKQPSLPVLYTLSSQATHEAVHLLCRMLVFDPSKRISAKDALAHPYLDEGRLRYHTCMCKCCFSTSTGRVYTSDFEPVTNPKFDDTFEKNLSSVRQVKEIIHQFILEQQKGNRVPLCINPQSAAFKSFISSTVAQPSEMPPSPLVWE

[7] = target: Insulin-like growth factor 1 receptor (Homo sapiens, UniProt P08069)
Chain of Insulin-like growth factor 1 receptor (P08069 31-736 limits assumed): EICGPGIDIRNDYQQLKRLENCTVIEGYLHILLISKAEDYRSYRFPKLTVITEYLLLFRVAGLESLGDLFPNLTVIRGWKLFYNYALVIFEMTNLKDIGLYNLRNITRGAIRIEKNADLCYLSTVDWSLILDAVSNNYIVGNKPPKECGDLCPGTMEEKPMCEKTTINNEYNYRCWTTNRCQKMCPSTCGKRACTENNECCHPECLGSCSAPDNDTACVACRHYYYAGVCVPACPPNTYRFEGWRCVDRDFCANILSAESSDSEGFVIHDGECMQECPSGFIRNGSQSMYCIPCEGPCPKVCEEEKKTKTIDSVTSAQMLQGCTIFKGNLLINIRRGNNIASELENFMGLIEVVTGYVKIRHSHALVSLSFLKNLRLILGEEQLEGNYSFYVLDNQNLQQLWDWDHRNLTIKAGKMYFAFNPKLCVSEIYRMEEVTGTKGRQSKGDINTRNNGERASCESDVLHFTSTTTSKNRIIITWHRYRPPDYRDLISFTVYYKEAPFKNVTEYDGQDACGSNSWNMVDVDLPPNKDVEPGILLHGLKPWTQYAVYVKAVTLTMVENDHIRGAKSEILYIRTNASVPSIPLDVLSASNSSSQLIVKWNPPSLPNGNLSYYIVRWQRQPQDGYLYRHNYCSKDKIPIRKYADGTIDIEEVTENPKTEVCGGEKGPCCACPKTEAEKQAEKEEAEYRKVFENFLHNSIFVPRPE
Chain of Insulin-like growth factor 1 receptor (P08069 741-1367 limits assumed): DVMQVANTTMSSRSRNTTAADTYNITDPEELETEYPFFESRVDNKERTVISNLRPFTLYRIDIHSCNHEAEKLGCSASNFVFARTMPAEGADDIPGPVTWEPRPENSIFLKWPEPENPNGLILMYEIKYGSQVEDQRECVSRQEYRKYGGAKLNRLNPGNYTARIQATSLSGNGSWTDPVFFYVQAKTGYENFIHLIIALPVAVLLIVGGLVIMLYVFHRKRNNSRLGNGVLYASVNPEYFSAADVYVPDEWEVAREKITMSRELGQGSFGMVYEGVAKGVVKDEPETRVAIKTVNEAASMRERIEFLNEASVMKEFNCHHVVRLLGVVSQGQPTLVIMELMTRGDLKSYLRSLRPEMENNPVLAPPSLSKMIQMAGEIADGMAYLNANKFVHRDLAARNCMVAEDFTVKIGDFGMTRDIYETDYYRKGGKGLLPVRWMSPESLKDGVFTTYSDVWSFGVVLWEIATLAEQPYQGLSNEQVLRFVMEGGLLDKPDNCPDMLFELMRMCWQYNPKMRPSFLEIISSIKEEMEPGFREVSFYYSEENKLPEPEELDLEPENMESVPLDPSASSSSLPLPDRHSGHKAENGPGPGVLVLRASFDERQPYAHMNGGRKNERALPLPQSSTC

Ephrin type-A receptor 7 = Ephrin type-A receptor 7 (Homo sapiens, UniProt Q15375)
Chain of Ephrin type-A receptor 7 (Q15375 whole entry): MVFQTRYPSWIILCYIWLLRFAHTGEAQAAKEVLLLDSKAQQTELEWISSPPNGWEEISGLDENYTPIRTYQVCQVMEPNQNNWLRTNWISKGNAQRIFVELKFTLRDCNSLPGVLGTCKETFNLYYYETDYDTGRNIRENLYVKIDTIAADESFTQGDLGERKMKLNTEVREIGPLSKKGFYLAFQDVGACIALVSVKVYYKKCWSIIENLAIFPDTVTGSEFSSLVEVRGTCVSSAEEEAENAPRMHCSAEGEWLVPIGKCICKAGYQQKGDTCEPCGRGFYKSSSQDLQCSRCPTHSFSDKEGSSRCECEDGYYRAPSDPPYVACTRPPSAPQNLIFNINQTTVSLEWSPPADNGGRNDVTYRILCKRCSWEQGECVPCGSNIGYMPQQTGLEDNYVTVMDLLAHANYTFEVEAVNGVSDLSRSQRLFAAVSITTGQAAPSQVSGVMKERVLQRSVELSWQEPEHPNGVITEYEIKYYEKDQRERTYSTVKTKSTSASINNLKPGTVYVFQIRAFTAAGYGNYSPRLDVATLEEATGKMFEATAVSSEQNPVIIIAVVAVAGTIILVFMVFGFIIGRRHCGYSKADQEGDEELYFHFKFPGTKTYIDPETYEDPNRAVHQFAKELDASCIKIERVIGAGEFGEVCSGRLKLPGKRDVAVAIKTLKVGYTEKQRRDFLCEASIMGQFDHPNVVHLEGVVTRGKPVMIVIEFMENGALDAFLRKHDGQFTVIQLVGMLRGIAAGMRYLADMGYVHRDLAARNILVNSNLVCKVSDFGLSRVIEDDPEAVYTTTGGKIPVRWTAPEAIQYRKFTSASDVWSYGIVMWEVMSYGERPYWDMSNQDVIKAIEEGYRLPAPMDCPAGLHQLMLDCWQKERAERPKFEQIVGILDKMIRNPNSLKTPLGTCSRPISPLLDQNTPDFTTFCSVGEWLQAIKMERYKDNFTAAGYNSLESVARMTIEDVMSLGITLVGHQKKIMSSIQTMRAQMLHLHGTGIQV
Note: in the data inactive means no Kd found up to 30 µM.

Chain of cAMP-dependent protein kinase type II-alpha regulatory subunit (P13861 whole entry): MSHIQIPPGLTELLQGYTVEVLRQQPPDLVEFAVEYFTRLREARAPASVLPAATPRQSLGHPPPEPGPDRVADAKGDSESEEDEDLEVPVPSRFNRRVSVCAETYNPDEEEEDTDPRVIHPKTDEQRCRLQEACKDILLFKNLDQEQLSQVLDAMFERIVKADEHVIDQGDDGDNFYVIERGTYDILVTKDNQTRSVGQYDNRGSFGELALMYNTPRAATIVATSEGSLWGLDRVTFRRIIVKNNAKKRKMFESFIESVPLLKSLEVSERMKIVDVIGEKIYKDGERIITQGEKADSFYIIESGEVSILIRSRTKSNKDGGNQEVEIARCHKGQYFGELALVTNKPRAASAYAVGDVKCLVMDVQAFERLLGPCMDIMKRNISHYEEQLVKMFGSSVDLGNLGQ

Compound	Kd [1]	Kd [2]	Kd [3]	Kd [4]	Kd [5]	Kd [6]	Kd [7]	Kd (Ephrin type-A receptor 7)
Cc1nc2cc(-c3nn(C(C)C)c4ncnc(N)c34)ccc2o1	> 30 µM (inactive)	> 30 µM (inactive)	> 30 µM (inactive)	> 30 µM (inactive)	> 30 µM (inactive)	0.449 µM (active)	> 30 µM (inactive)	> 30 µM (inactive)
O=C(Nc1c[nH]nc1-c1nc2cc(CN3CCOCC3)ccc2[nH]1)NC1CC1 [AT-9283]	> 30 µM (inactive)	> 30 µM (inactive)	> 30 µM (inactive)	> 30 µM (inactive)	> 30 µM (inactive)	> 30 µM (inactive)	> 30 µM (inactive)	0.008 µM (active)
COc1cc([C@@H]2c3cc4c(cc3[C@H](O)[C@H]3COC(=O)[C@@H]23)OCO4)cc(OC)c1OC [AXL-1717]	> 30 µM (inactive)	> 30 µM (inactive)	> 30 µM (inactive)	> 30 µM (inactive)	> 30 µM (inactive)	> 30 µM (inactive)	> 30 µM (inactive)	> 30 µM (inactive)
Cn1cnc2c(F)c(Nc3ccc(Br)cc3F)c(C(=O)NOCCO)cc21 [BINIMETINIB]	> 30 µM (inactive)	> 30 µM (inactive)	> 30 µM (inactive)	> 30 µM (inactive)	> 30 µM (inactive)	> 30 µM (inactive)	> 30 µM (inactive)	> 30 µM (inactive)
CCn1c(C(=O)N(C2CC2)C2CC2)cc2c3c(ncn3C)c(Nc3cc(C)n(C)n3)nc21 [BMS-911543]	> 30 µM (inactive)	> 30 µM (inactive)	> 30 µM (inactive)	> 30 µM (inactive)	> 30 µM (inactive)	> 30 µM (inactive)	> 30 µM (inactive)	> 30 µM (inactive)
COc1cc2ncnc(Oc3cccc(NC(=O)Nc4cc(C(C)(C)C(F)(F)F)on4)c3)c2cc1OC [CEP-32496]	> 30 µM (inactive)	> 30 µM (inactive)	> 30 µM (inactive)	> 30 µM (inactive)	> 30 µM (inactive)	> 30 µM (inactive)	> 30 µM (inactive)	> 30 µM (inactive)
COc1c(OCCCN2CCOCC2)ccc2c1N=C(NC(=O)c1cnc(N)nc1)N1CCN=C21 [COPANLISIB]	> 30 µM (inactive)	> 30 µM (inactive)	> 30 µM (inactive)	> 30 µM (inactive)	> 30 µM (inactive)	> 30 µM (inactive)	> 30 µM (inactive)	> 30 µM (inactive)
COCC(=O)NC/C=C/c1ccc2ncnc(Nc3ccc(Oc4ccc(C)nc4)c(C)c3)c2c1 [CP-724714]	> 30 µM (inactive)	> 30 µM (inactive)	> 30 µM (inactive)	> 30 µM (inactive)	> 30 µM (inactive)	> 30 µM (inactive)	> 30 µM (inactive)	> 30 µM (inactive)
Cc1cccc(-c2nn3c(c2-c2ccnc4ccc(C(N)=O)cc24)CCC3)n1 [GALUNISERTIB]	> 30 µM (inactive)	> 30 µM (inactive)	> 30 µM (inactive)	> 30 µM (inactive)	> 30 µM (inactive)	> 30 µM (inactive)	> 30 µM (inactive)	> 30 µM (inactive)
CCn1cc(-c2ccnc3[nH]c(-c4cccc(CN(C)C)c4)cc23)c(-c2ccc(NC(=O)N(C)C)cc2)n1 [GSK-1070916]	> 30 µM (inactive)	> 30 µM (inactive)	> 30 µM (inactive)	> 30 µM (inactive)	> 30 µM (inactive)	> 30 µM (inactive)	> 30 µM (inactive)	> 30 µM (inactive)
O=C(Nc1cc(C(F)(F)F)cc(C(F)(F)F)c1)c1cc(Cl)ccc1O [IMD-0354]	> 30 µM (inactive)	> 30 µM (inactive)	> 30 µM (inactive)	> 30 µM (inactive)	> 30 µM (inactive)	> 30 µM (inactive)	> 30 µM (inactive)	> 30 µM (inactive)
CNC(=O)c1cccc2cc(Oc3ccnc4cc(OCC5(N)CC5)c(OC)cc34)ccc12 [LUCITANIB]	> 30 µM (inactive)	> 30 µM (inactive)	> 30 µM (inactive)	> 30 µM (inactive)	> 30 µM (inactive)	> 30 µM (inactive)	> 30 µM (inactive)	> 30 µM (inactive)
NC1(c2ccc(-c3nc4ccn5c(=O)[nH]nc5c4cc3-c3ccccc3)cc2)CCC1 [MK-2206]	> 30 µM (inactive)	> 30 µM (inactive)	> 30 µM (inactive)	> 30 µM (inactive)	> 30 µM (inactive)	> 30 µM (inactive)	> 30 µM (inactive)	> 30 µM (inactive)
CN(C[C@@H]1COCCO1)S(=O)(=O)Nc1ccc2ccc3ncc(-c4cnn(C)c4)cc3c(=O)c2c1 [MK-2461]	> 30 µM (inactive)	> 30 µM (inactive)	> 30 µM (inactive)	> 30 µM (inactive)	> 30 µM (inactive)	> 30 µM (inactive)	> 30 µM (inactive)	> 30 µM (inactive)
Cn1cc(-c2cnc3ccc4ccc(CS(=O)(=O)NCc5ccccn5)cc4c(=O)c3c2)cn1 [MK-8033]	> 30 µM (inactive)	> 30 µM (inactive)	> 30 µM (inactive)	> 30 µM (inactive)	> 30 µM (inactive)	> 30 µM (inactive)	> 30 µM (inactive)	> 30 µM (inactive)
CCOc1cc2ncc(C#N)c(Nc3ccc(F)c(Cl)c3)c2cc1NC(=O)/C=C/CN(C)C [PELITINIB]	> 30 µM (inactive)	> 30 µM (inactive)	> 30 µM (inactive)	> 30 µM (inactive)	> 30 µM (inactive)	> 30 µM (inactive)	> 30 µM (inactive)	> 30 µM (inactive)
Cc1cnc(NC(=O)Nc2cc(Br)c(C)cc2OC[C@@H]2CNCCO2)cn1 [RABUSERTIB]	> 30 µM (inactive)	> 30 µM (inactive)	> 30 µM (inactive)	> 30 µM (inactive)	> 30 µM (inactive)	> 30 µM (inactive)	> 30 µM (inactive)	> 30 µM (inactive)
N#CC1(c2ccc(NC(=O)c3cccnc3NCc3ccncc3)cc2)CCCC1 [RIVOCERANIB]	> 30 µM (inactive)	> 30 µM (inactive)	> 30 µM (inactive)	> 30 µM (inactive)	> 30 µM (inactive)	> 30 µM (inactive)	> 30 µM (inactive)	> 30 µM (inactive)

— ChEMBL document CHEMBL3991601, “The target landscape of clinical kinase drugs” (Science, 2017)
